Active and inactive are the calls of the source. The rule behind the calls is not given here.
What was measured:
[1] = molecular target: RNA-directed RNA polymerase (Hepacivirus hominis, UniProt O39930); assay: Inhibitory activity against HCV 1b BK NS5B deltaC21 RNA polymerase; parameters: species or system Hepatitis C virus subtype 1b
Hepatitis C virus = assay: Antiviral activity against HCV 1b in Huh7 cell line upto 10 uM by replicon assay; format: functional, cell-based; conditions: Hepacivirus hominis; genotype 1b; Huh-7

RNA-directed RNA polymerase, sequence (O39930 whole entry): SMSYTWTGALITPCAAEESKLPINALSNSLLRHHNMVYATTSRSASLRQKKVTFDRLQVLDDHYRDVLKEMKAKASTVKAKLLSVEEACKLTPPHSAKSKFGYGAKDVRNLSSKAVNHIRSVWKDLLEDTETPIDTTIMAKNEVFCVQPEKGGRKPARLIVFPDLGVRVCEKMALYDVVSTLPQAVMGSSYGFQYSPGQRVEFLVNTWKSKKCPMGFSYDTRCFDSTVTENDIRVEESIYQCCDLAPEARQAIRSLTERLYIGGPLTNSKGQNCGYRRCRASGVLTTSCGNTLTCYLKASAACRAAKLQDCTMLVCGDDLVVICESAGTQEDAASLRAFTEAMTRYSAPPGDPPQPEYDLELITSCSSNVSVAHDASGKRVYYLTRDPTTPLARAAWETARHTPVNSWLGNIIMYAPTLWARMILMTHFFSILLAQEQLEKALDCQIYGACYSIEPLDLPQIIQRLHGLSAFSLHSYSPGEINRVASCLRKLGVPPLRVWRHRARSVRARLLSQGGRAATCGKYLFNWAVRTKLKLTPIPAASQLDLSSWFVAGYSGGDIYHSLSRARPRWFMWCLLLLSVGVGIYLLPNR

Row | SMILES | IC50 [1] [µM] | Activity (Hepatitis C virus)
1 | CCc1cccc(CCC2(C3CCCC3)CC(=O)CC(=O)O2)c1 (configuration not stated) | 3.6 | inactive
2 | O=C1CC(=O)OC(CCc2ccc(O)cc2)(C2CCCC2)C1 (configuration not stated) | 8.2 | inactive
3 | O=C1CC(=O)OC(CCc2ccc(O)cc2)(C2CCCCC2)C1 (configuration not stated) | 52 | inactive
4 | Cc1cccc(CCC2(C3CCCC3)CC(=O)CC(=O)O2)c1 (configuration not stated) | 23 | inactive
5 | COc1ccc(CCC2(C3CCCC3)CC(=O)C(Sc3ccccc3)=C(O)O2)cc1Cl (configuration not stated) | 0.56 | inactive
6 | CC1(CCc2ccc(O)cc2)CC(=O)CC(=O)O1 (configuration not stated) | > 100 | inactive
7 | COc1ccc(CCC2(C3CCCC3)CC(=O)C(Sc3ccc(O)cc3)=C(O)O2)cc1Cl (configuration not stated) | 0.13 | inactive
8 | COc1ccc(CCC2(C3CCCC3)CC(=O)C(Sc3nncn3C)=C(O)O2)cc1Cl (configuration not stated) | 0.038 | inactive
9 | COc1ccc(CCC2(C3CCCC3)CC(=O)CC(=O)O2)cc1F (configuration not stated) | 0.89 | inactive
10 | CC(C)Oc1ccc(CCC2(C3CCCC3)CC(=O)CC(=O)O2)cc1F (configuration not stated) | – | inactive
11 | CC(C)c1ccc(CCC2(C3CCCC3)CC(=O)CC(=O)O2)cc1 (configuration not stated) | 4.3 | inactive
12 | COc1ccc(CCC2(C3CCCC3)CC(=O)C(Sc3nnnn3C)=C(O)O2)cc1Cl (configuration not stated) | 0.28 | inactive
13 | CCOc1ccc(CCC2(C3CCCC3)CC(=O)CC(=O)O2)cc1F (configuration not stated) | 0.79 | inactive
14 | CC(C)c1cccc(CCC2(C3CCCC3)CC(=O)CC(=O)O2)c1 (configuration not stated) | 1.8 | inactive
15 | O=C1CC(=O)OC(CCc2ccccc2)(C2CCCC2)C1 (configuration not stated) | 48 | inactive
16 | O=C1CC(=O)OC(CCc2cccc(Cl)c2)(C2CCCC2)C1 (configuration not stated) | 5 | inactive
17 | COc1ccc(CCC2(C3CCCC3)CC(=O)CC(=O)O2)cc1 (configuration not stated) | 9.7 | inactive
18 | Cc1cc(SC2=C(O)OC(CCc3ccc(O)cc3)(C3CCCC3)CC2=O)c(C(C)(C)C)cc1N (configuration not stated) | 0.93 | inactive
19 | CCOc1ccc(CCC2(C3CCCC3)CC(=O)CC(=O)O2)cc1 (configuration not stated) | 2.9 | inactive
20 | CC(C)Oc1ccc(CCC2(C3CCCC3)CC(=O)CC(=O)O2)cc1 (configuration not stated) | 1.7 | inactive
21 | CCCC1(CCc2ccc(OC)cc2)CC(=O)CC(=O)O1 (configuration not stated) | > 50 | inactive
22 | O=C1CC(=O)OC(CCc2ccc(O)cc2)(C2CCC2)C1 (configuration not stated) | 93 | inactive
23 | COc1ccc(CCC2(C3CCCC3)CC(=O)C(Sc3nccn3C)=C(O)O2)cc1Cl (configuration not stated) | 0.14 | inactive
24 | COc1ccc(CCC2(C3CCCC3)CC(=O)CC(=O)O2)cc1Cl (configuration not stated) | 1 | inactive

— ChEMBL document CHEMBL1149470, “Identification and structure-based optimization of novel dihydropyrones as potent HCV RNA polymerase inhibitors” (Bioorg Med Chem Lett, 2006)
